Reference: PMC9147171, “Pharmacokinetic/Pharmacodynamic Evaluation of a New Purine-2,6-Dione Derivative in Rodents with Experimental Autoimmune Diseases” (Pharmaceutics, 2022)

Legend:
[1] = test system: ConA-induced hepatitis in mice; experiment: ConA-induced hepatitis in mice; format: in vivo, BALB/c mice; details: 50 mg·kg^−1 IP 30 min prior to ConA
Method: ConA was dissolved in saline for injection at a concentration of 2 mg·mL^−1. The mice were given IP doses of compound 34 or the equivalent volume of vehicle (control group) and, 30 min later, animals were given an IV injection of ConA (20 mg·kg^−1) via tail vein. An additional group of mice was given vehicle alone IP followed by an IV injection of saline. The mice were sacrificed by exsanguination at 2, 8, and 24 h post-ConA dosing. Blood samples were collected and handled as described above.
Serum aspartate transaminase (AST) and alanine transaminase (ALT) activities were analyzed using the chemistry analyzer BS-800 (Shenzhen Mindray Bio-medical Electronics Co., Ltd., Shenzhen, China). Cytokine levels in mouse serum (TNFα, IL-4, IL-6, and interferon (IFN)γ) were quantified by a Magnetic Luminex® Assay (R&D Systems, Inc, Minneapolis, MN, USA) using a Magpix platform (Luminex Corp., Austin, TX, USA).

PDE7A = experiment: PDE inhibition assay, PDE7A (previous investigations); format: biochemical; details: ratio of IC50 values, vs GRMS-55

## Cn1c(=O)c2c(nc(NCCc3ccccc3)n2CCCC(=O)NN=Cc2ccc(O)c(O)c2O)n(C)c1=O [Compound 34, 4-(1,3-dimethyl-2,6-dioxo-8-(phenethylamino)-2,3,6,7-tetrahydro-1H-purin-7-yl)-N′-(2,3,4-trihydroxybenzylidene)butanehydrazide]
[1]; 2 h after ConA injection
  serum IFNγ level compared to the control group: not significantly different
  serum IL-4 concentration, lower compared to the control group: 76%
  serum IL-6 level compared to the control group: not significantly different
  serum TNFα concentration, lower compared to the control group: 34%
[1]; 8 h post-ConA injection
  ALT serum activity, reduction compared to the control group: 73%
  AST serum activity, reduction compared to the control group: 59%
[1]; 24 h post-ConA dosing
  serum IFNγ concentration, lower compared to the control group: 36%
  serum IL-4 level, treatment vs control group: not different
  serum IL-6 level, treatment vs control group: not different
PDE7A
  times more potent as a PDE7A inhibitor compared to GRMS-55: about two
